Here are results for one compound from paper PMC3898987 (Bioorganic & Medicinal Chemistry, 2013).

Experiment in all cases: radioligand saturation binding, transfected HEK293 membranes
The target of assay [1] is T1, 5-HT3AB receptor, 5-HT3B subunit F130A (Homo sapiens, UniProt O95264+P46098, F123A).
T1 sequence (P46098 24-478): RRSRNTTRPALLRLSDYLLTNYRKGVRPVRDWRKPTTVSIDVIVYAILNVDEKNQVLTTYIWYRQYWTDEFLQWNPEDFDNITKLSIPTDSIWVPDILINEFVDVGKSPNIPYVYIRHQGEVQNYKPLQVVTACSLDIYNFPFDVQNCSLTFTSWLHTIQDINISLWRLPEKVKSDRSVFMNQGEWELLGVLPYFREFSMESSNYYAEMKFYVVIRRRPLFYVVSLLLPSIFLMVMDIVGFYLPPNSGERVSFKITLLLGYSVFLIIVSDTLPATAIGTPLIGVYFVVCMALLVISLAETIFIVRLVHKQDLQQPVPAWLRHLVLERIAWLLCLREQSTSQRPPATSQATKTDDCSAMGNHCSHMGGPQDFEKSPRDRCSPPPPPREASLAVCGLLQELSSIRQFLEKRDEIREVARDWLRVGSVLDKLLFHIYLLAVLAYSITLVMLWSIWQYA
T1 sequence (O95264 22-441 F123A): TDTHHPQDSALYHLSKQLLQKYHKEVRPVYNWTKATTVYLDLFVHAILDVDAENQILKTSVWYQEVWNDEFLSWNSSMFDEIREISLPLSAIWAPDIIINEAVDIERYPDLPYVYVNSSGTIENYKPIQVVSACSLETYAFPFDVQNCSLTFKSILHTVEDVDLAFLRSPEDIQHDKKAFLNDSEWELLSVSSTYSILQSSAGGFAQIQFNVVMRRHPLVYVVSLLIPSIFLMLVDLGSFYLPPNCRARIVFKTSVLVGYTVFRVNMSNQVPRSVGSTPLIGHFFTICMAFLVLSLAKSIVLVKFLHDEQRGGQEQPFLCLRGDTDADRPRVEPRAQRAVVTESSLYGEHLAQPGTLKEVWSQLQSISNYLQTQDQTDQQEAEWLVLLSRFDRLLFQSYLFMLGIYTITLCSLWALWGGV
Protocol: (§1) Human embryonic kidney (HEK) 293 cells were cultured on 90 mm tissue culture plates at 37 °C and 7% CO2 in a humidified atmosphere. They were grown in DMEM:F12 (Dulbecco’s Modified Eagle’s Medium/Nutrient Mix F12 (1:1)) with GlutaMAX I™ containing 10% fetal calf serum and passaged when confluent. For radioligand binding studies, cells in 90 mm dishes were transfected at 60–70% confluency using polyethyleneimine and incubated for 3–4 days before use. For FlexStation assays, transfected cells were plated on 96-well plates and incubated 1–2 days before assay. […]
(§2) Eight-point binding assays were performed to produce saturation binding curves. […] Radioactive counts were measured using a Beckman LS6000SC liquid scintillation counter (Fullerton, California, USA).
(§3) Data were analyzed by iterative curve fitting using GraphPad Prism v5 (San Diego, CA) according to the following equation: B=Bmax[L]^n/kdn+[L]^n where B is the amount of bound radioligand, Bmax is the maximum specific binding at equilibrium, [L] is the concentration of radioligand, Kd is the equilibrium dissociation constant of the radioligand, and n is the Hill coefficient.

For the next assay, the target named is T2, 5-HT3A receptor Y73A (Homo sapiens, UniProt P46098, Y68A).
T2 sequence (P46098 24-478 Y68A): T1 sequence (P46098 24-478) with Y45A
To be noted: [3H]-palonosetron saturation, 5-HT3A Y73A, 4 °C, 24 h.

For the next assay, the target named is T3, 5-HT3A receptor F130Y (Homo sapiens, UniProt P46098, F125Y).
T3 sequence (P46098 24-478 F125Y): T1 sequence (P46098 24-478) with F102Y
Particulars: [3H]-palonosetron saturation, 5-HT3A F130Y, 4 °C, 24 h.

The target in another assay is T4, 5-HT3A receptor S163A (Homo sapiens, UniProt P46098, S158A).
T4 sequence (P46098 24-478 S158A): T1 sequence (P46098 24-478) with S135A
To be noted: [3H]-palonosetron saturation, 5-HT3A S163A, 4 °C, 24 h.

Changes are numbered by the printed parent chain.

Protocol for 5-HT3A receptor F130Y: as §1, §2, §3
Protocol for 5-HT3A receptor S163A: as §1, §2, §3
Protocol for 5-HT3A receptor Y73A: as §1, §2, §3

Usually Kd stands for the equilibrium constant for the complex coming apart. Consider `O=C1c2cccc3c2[C@H](CCC3)CN1[C@@H]1CN2CCC1CC2` [Palonosetron], for which the Kd in assay [1] ([3H]-palonosetron saturation, 5-HT3AB with 5-HT3B F130A, 4 °C, 24 h) was 480 ± 30 pM; at 5-HT3A receptor Y73A it was 870 ± 40 pM; at 5-HT3A receptor F130Y it was 260 ± 90 pM; on 5-HT3A receptor S163A, 300 ± 80 pM. Moreover, in assay [1] ([3H]palonosetron, F130A (5-HT3B) containing heteromers vs WT 5-HT3AB), the “increase in Kd compared to wild type” value was “twofold”.
